Reference: US12503479B2, “Phospholipid-flavagline conjugates and methods of using the same for targeted cancer therapy” (Cellectar Biosciences, Inc., priority 2018, dated 2025)
Read-outs that look alike come from different tables or passages of the source.

Assays:
[1] = tested on: Caki-2 tumor cells (human clear cell renal cell carcinoma); conditions: 5 μM, 24 hours at 37° C., co-culture with normal fibroblast
Description: (§1) Normal fibroblast and Caki-2 tumor cells (human clear cell renal cell carcinoma) were plated and co-cultured overnight (FIG. 1F). […] The next day cells were washed and co-stained with nucleus stain (Hoescht 33342). CLR 1501 was excited and then detected with an Alexa-Fluor 488 filter.

Normal fibroblast = conditions: 5 μM, 24 hours at 37° C., co-culture with Caki-2 tumor cells
Description: as §1

[2] = tested on: PC3 (grade IV, human prostate adenocarcinoma) cell lines; conditions: 5 μM, 24 hours at 37° C.
Description: PC3 (grade IV, human prostate adenocarcinoma) cell lines were cultured overnight on micro slide VI (Ibidi, Verona, WI). […] The next day after washing with PBS, the cells were co-stained with nucleus stain (Hoechst 33342) and mitochondria marker (Mitotracker®) (Invitrogen, Carlsbad, CA). The cells were observed using Nikon A1R confocal microscope. CLR 1501 was excited and detected using Alexa-Fluor 488 filter, while nucleus stain and mitochondria stain were excited and detected using DAPI filter and Texas-Red filter, respectively.

Adrenal H-295 = conditions: SCID Mouse, Adenocarcinoma
Text: (§2) Various cancer cell lines were exposed in vitro and in vivo to a fluorescently labelled PLE (CLR 1501, compound (1)).

Adrenal RL-251 = conditions: SCID Mouse, Adenocarcinoma
Text: as §2

Breast 4T1 = conditions: Endogenous Mouse (orthotopic), Adenocarcinoma
Text: as §2

Breast MCF-7 = conditions: Rat, Adenocarcinoma
Text: as §2

Cervical = conditions: Endogenous Mouse, Adenocarcinoma
Text: as §2

Colon CT-26 = conditions: SCID Mouse, Adenocarcinoma
Text: as §2

Colon DLDI = conditions: SCID Mouse, Colorectal adenocarcinoma
Text: as §2

Colon HT-29 = conditions: SCID Mouse, Colorectal adenocarcinoma
Text: as §2

Colon LS-180 = conditions: Nude Mouse, Adenocarcinoma
Text: as §2

Colon-51 = conditions: SCID Mouse, Colorectal adenocarcinoma
Text: as §2

ColonLS180 = conditions: SCID Mouse, Colorectal adenocarcinoma
Text: as §2

Esophageal = conditions: Endogenous Mouse, Adenocarcinoma
Text: as §2

Glioma C6 = conditions: Rat xenograft
Text: as §2

Glioma CNS1 = conditions: Rat xenograft
Text: as §2

Glioma L9 = conditions: Rat xenograft
Text: as §2

Glioma RG2 = conditions: Rat xenograft
Text: as §2

Hepatocellular Carcinoma = conditions: Endogenous Mouse, Adenocarcinoma
Text: as §2

Lung A-549 (NSCLC) = conditions: SCID Mouse, Adenocarcinoma
Text: as §2

Lung NCI H-69 (Oat Cell) = conditions: SCID Mouse
Text: as §2

Mammary AC = conditions: Apc^Min/+ mouse, Adenocarcinoma
Text: as §2

Mammary SCC = conditions: Apc^Min/+ mouse, Squamous cell carcinoma
Text: as §2

Melanoma A-375 = conditions: Nude Mouse
Text: as §2

Melanoma = conditions: Mouse, Adenocarcinoma
Text: as §2

Min Mouse Intestinal = conditions: Endogenous Mouse, Adenocarcinoma
Text: as §2

Ovarian HTB-77 = conditions: Nude Mouse, Adenocarcinoma
Text: as §2

Pancreatic BXPC3 = conditions: Nude Mouse, Adenocarcinoma
Text: as §2

Pancreatic Capan-1 = conditions: Nude Mouse, Adenocarcinoma
Text: as §2

Pancreatic Kras = conditions: Endogenous Mouse, Adenocarcinoma
Text: as §2

Pancreatic c-myc = conditions: Endogenous Mouse, Adenocarcinoma
Text: as §2

Prostate LnCap = conditions: Mouse, Adenocarcinoma
Text: as §2

Prostate LuCap = conditions: Mouse, Adenocarcinoma
Text: as §2

Prostate MatLyLu = conditions: Rat, Adenocarcinoma
Text: as §2

Prostate PC-3 = conditions: SCID Mouse, Adenocarcinoma
Text: as §2

Renal Cell ACHN = conditions: Nude Mouse (orthotopic), Adenocarcinoma
Text: as §2

Renal Cell Caki-2 = conditions: Nude Mouse (orthotopic), Adenocarcinoma
Text: as §2

Retinoblastoma = conditions: Endogenous Mouse, Blastoma
Text: as §2

SCC1 = conditions: Nude Mouse, Squamous cell carcinoma
Text: as §2

SCC6 = conditions: Nude Mouse
Text: as §2

Sarcoma (Meth-A) = conditions: Nude Mouse, Fibrosarcoma
Text: as §2

TRAMP prostate = conditions: Endogenous Mouse, Adenocarcinoma
Text: as §2

[3] = tested on: Various cancer cell lines; conditions: in vitro and in vivo; uptake measured continuously for 24 hours
Text: as §2

Walker-256 = conditions: Rat, Carcinosarcoma
Text: as §2

[4] = tested on: cancer stem cells, normal brain tissue, and normal stem cells; conditions: FIG. 7
Text: as §2

myeloma cell lines = conditions: FIG. 6
Text: as §2

A549 cells = A549 cells treated with methyl b-cyclodextrin compared to untreated cells; 5 μμM, 24 hours
benign tissues = conditions: in vivo
Intestinal Polyp = experiment: Uptake in benign tissues: Intestinal Polyp; type: in vivo; conditions: Endogenous Mouse, Adenoma (benign)
[5] = tested on: Mammary alveolar hyperplasia; experiment: Uptake in benign tissues: Mammary alveolar hyperplasia; type: in vivo; conditions: Endogenous Mouse
[6] = tested on: A549 (human lung adenocarcinoma) cells; experiment: Cytotoxicity of parent compound versus PDC, tumor cells (Example 8); type: cell-based; conditions: increasing concentrations; FIG. 3
Description: A549 (human lung adenocarcinoma) cells and normal human dermal fibroblasts (NHDF) were plated in 96 well dishes overnight. […] The difference between the cytotoxicity of the PDC molecule for tumor cells and that of the normal cells may have indicated a potential to improve the parent molecules therapeutic index.

[7] = tested on: A375 (human malignant melanoma); experiment: IC50 in cell lines: A375; type: cell-based; conditions: A-375, read-out: IC50, A375
[8] = tested on: A549 (human lung adenocarcinoma); experiment: cells; type: cell-based; conditions: Homo sapiens, A549, read-out: IC50, A549
[9] = tested on: HCT 116 (human colon cancer); experiment: IC50 in cell lines: HCT 116; type: cell-based; conditions: HCT-116, read-out: IC50, HCT 116
[10] = tested on: NHDF (normal human dermal fibroblasts); experiment: cells; type: cell-based
[11] = type: in vivo, mice
Description: Listed in Table 5 are the doses administered to the mice, and how many mice were alive after treatment (“3/3” indicates 3 out of 3 mice were alive). […] MTD for CLR 1865 was between 5 and 10 mg/kg.

A375 and A549 cells = experiment: Levels of FLV3 in cell lysate and growth media (LC/MS); type: cell-based, human
Description: FIG. 11 is a graph of concentration versus time for FLV3 detected in the cytosol (normalized to the cytosolic volume) in A375 (human melanoma) and A549 (human lung adenocarcinoma) cell lines.
The levels of FLV3 in cell lysate and growth media were measured using LC/MS. […] Levels of intracellular FLV3 appeared to plateau at 24 hours, while extracellular levels of FLV3 continued to increase.

## C[N+](C)(C)CCOP(=O)([O-])OCCCCCCCCCCCCCCCCCCc1ccc(C2=C3C=CC=[N+]3[B-](F)(F)n3cccc32)cc1 [CLR 1501]
[1]
  Localization in Caki-2 cells: highly localized
Normal fibroblast
  Localization in normal fibroblast cells: minimally
[2]
  Co-localization with mitochondria: co-localized with mitochondria
Adrenal H-295
  Tumor Uptake: Yes
Adrenal RL-251
  Tumor Uptake: Yes
Breast 4T1
  Tumor Uptake: Yes
Breast MCF-7
  Tumor Uptake: Yes
Cervical
  Tumor Uptake: Yes
Colon CT-26
  Tumor Uptake: Yes
Colon DLDI
  Tumor Uptake: Yes
Colon HT-29
  Tumor Uptake: Yes
Colon LS-180
  Tumor Uptake: Yes
Colon-51
  Tumor Uptake: Yes
ColonLS180
  Tumor Uptake: Yes
Esophageal
  Tumor Uptake: Yes
Glioma C6
  Tumor Uptake: Yes
Glioma CNS1
  Tumor Uptake: Yes
Glioma L9
  Tumor Uptake: Yes
Glioma RG2
  Tumor Uptake: Yes
Hepatocellular Carcinoma
  Tumor Uptake: Yes
Lung A-549 (NSCLC)
  Tumor Uptake: Yes
Lung NCI H-69 (Oat Cell)
  Tumor Uptake: Yes
Mammary AC
  Tumor Uptake: Yes
Mammary SCC
  Tumor Uptake: Yes
Melanoma A-375
  Tumor Uptake: Yes
Melanoma
  Tumor Uptake: Yes
Min Mouse Intestinal
  Tumor Uptake: Yes
Ovarian HTB-77
  Tumor Uptake: Yes
Pancreatic BXPC3
  Tumor Uptake: Yes
Pancreatic Capan-1
  Tumor Uptake: Yes
Pancreatic Kras
  Tumor Uptake: Yes
Pancreatic c-myc
  Tumor Uptake: Yes
Prostate LnCap
  Tumor Uptake: Yes
Prostate LuCap
  Tumor Uptake: Yes
Prostate MatLyLu
  Tumor Uptake: Yes
Prostate PC-3
  Tumor Uptake: Yes
Renal Cell ACHN
  Tumor Uptake: Yes
Renal Cell Caki-2
  Tumor Uptake: Yes
Retinoblastoma
  Tumor Uptake: Yes
SCC1
  Tumor Uptake: Yes
SCC6
  Tumor Uptake: Yes
Sarcoma (Meth-A)
  Tumor Uptake: Yes
TRAMP prostate
  Tumor Uptake: Yes
[3]
  Specificity for tumors and cancer cells: specific for tumors and cancer cells
Walker-256
  Tumor Uptake: Yes
[4]
  Uptake into cancer cells versus normal brain tissue and normal stem cells: specific uptake
Myeloma cell lines
  Uptake, myeloma cell lines: uptake
A549 cells
  Reduction in uptake after disruption of lipid rafts: 60%
Benign tissues
  Uptake in benign tissues: no uptake was observed

## C[N+](C)(C)CCOP(=O)([O-])OCCCCCCCCCCCCCCCCCCc1ccc(I)cc1 [CLR1404]
Intestinal Polyp
  Tumor Uptake: No
[5]
  Tumor Uptake: No

## COC(=O)[C@@H]1[C@H](O)[C@]2(O)c3c(OC)cc(OCCCCN)cc3O[C@]2(c2ccc(OC)cc2)[C@H]1c1ccccc1 [FLV3, reference compound]
[6]
  Cytotoxic potency to A549 cells versus NHDF cells (selectivity): near equal potency to the A549 cells as it did to the NHDF cells
[7]
  IC50: 15 nM
[8]
  IC50: 90 nM
[9]
  IC50: 9 nM
[10]; Homo sapiens, NHDF, read-out: IC50, NHDF
  IC50: 8 nM
[10]; not defined, equals NHDF IC50 over lowest tumor line IC50
  Therapeutic Index (TI): 0.89
[11]; Dose 0.1 mg/kg
  Mice alive after treatment: 3/3
[11]; Dose 0.25 mg/kg
  Mice alive after treatment: 3/3
A375 and A549 cells
  Time at which levels of intracellular FLV3 plateau: 24 h
A375 and A549 cells; after 24 hours
  Levels of FLV3 in the growth media: Moderate levels
A375 and A549 cells; after 24 hours, FIG. 11
  Levels of FLV3 in the cell lysate: high levels
